# Measurements as given in patent US10100070B2, “Borate-based base generator, and base-reactive composition comprising such base generator” (FUJIFILM Wako Pure Chemical Corporation, priority 2014, dated 2018).
# Experiments:
# [1] = Storage stability tests to a base-reactive compound; assay type: physicochemical; conditions: 0.1 g in 2 g SR-NPG, 1 week at 40° C., viscosity change
# [2] = Heat resistance tests (TG-DTA); assay type: physicochemical; conditions: 10 mg, heated from 30° C. to 500° C. at 10° C./min.
# Description: Thus calculated temperature was used as decomposition initiation temperature to evaluate heat resistance of these compounds (base generators).
# [3] = Solubility tests to organic solvents and a base-reactive compound
# Description: The case where the compounds (base generators) were dissolved into less than 1 mL of the addition amount of the organic solvents or the base-reactive compound was evaluated as [++]; the case where the compounds (base generators) were dissolved into not less than 1 mL and less than 5 mL thereof was evaluated as [+]; the case where the compounds (base generators) were dissolved into not less than 5 mL and less than 10 mL thereof was evaluated as [−]; and the case where the compounds (base generators) were dissolved only into not less than 10 mL thereof was evaluated as [−−].
TG-DTA Decomposition Initiation Temperature (5% weight loss initiation temperature) [2] [°C],Molecule,Storage stability in epoxy [1],also measured
280,"1,3-dimethyl-2-(N′,N′,N″,N″-tetramethylguanidino)-4,5-dihydro-3H-imidazolium triphenyl(n-butyl)borate [Example 4]",◯,
223,"1-cyclohexyl-3-(4-nitrophenyl)-4,4,5,5-tetramethylbiguanidium triphenyl(n-butyl)borate [Example 9]",◯,
,tetrakis(tetramethylguanidino)phosphonium tetraphenylborate [Comp. Ex. 4],−,"Solubility in EL ([3]; 0.1 g compound, ethyl lactate added gradually at room temperature, visual): −− (dissolved only into not less than 10 mL thereof); Solubility in SR-NPG ([3]; 0.1 g compound, neopentylglycol diglycidyl ether added gradually at room temperature, visual): −− (dissolved only into not less than 10 mL thereof); Solubility in PGMEA ([3]; 0.1 g compound, propyleneglycol monomethylether acetate added gradually at room temperature, visual): −− (dissolved only into not less than 10 mL thereof); Solubility to organic solvents generally used in this field (in words) ([3]; conclusion from Table 7): poor solubility; Solubility to the base-reactive compound (in words) ([3]; conclusion from Table 7): poor solubility"
300,tetrakis(tetramethylguanidino)phosphonium p-tolylethynyl triphenylborate [Example 7],◯,
,"1,3-dimethyl-2-(N,N′,N″,N″-tetramethylguanidino)-4,5-dihydro-3H-imidazolium triphenyl(n-butyl)borate [Comp. Ex. 10]",−,

Molecule,TG-DTA Decomposition Initiation Temperature (5% weight loss initiation temperature) [2] [°C],Storage stability in epoxy [1],also measured
"CCCC[B-](c1ccccc1)(c1ccccc1)c1ccccc1.CN(C)C(=N[P+](N=C(N(C)C)N(C)C)(N=C(N(C)C)N(C)C)N=C(N(C)C)N(C)C)N(C)C [Example 5, tetrakis(tetramethylguanidino)phosphonium triphenyl(n-butyl)borate]",318,◯,
"CC(C)NC(=[N+]=C(N(C)C)N(C)C)NC(C)C.Cc1ccc(C#C[B-](c2ccccc2)(c2ccccc2)c2ccccc2)cc1 [Example 6, 1,2-diisopropyl-4,4,5,5-tetramethylbiguanidium p-tolylethynyl triphenylborate]",185,◯,
